Measurements from patent US8278072B1, “Method for synthesis of sialylated products using reversible sialylation” (Health Research, Inc., priority 2007, dated 2012).

Key:
Assay type in all cases: biochemical
ST3Gal-II [1] = target: T1, ST3Gal-II (Rattus norvegicus, UniProt Q11205); test: Effect of O-glycans with sialyl or sulfo substituents on reverse sialylation from [9-3H] sialyl fetuin; details: 6.0 mM compound, [9-3H] sialyl fetuin donor, 20 mM 5′-CMP, 20 h
T1 construct: purchased Calbiochem
T1 sequence (Q11205 1-350): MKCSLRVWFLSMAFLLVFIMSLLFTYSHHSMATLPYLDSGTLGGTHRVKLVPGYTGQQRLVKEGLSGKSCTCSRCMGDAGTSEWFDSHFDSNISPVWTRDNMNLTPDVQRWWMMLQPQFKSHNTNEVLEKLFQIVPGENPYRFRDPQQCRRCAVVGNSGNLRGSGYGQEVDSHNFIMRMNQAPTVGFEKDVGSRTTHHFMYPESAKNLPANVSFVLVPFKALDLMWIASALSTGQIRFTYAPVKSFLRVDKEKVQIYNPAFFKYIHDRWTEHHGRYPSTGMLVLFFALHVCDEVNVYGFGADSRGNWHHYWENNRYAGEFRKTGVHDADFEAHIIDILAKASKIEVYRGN
Experimental: FIG. 6. Effect of sialyl or sulfo substituents in O-glycan chain on the reverse sialylation by ST3Gal-II. Incubation mixtures (600 μl) contained [9-^3H] sialyl fetuin (5 mg), 200 mM NaCa Codylate pH 6.0, 20 mM 5′-CMP, […] ST3Gal-II and the following: a. 6.0 mM NeuAcα2,3Galβ1,4GlcNAcβ1,6 (Galβ1,3)GalNAcα-O-Bn, b. 6.0 mM 3-O-SulfoGalβ1,4GlcNAcβ1,6(Galβ1,3)GalNAcα-O-Bn or c. 6.0 mM Galβ1,6GlcNAcβ1,6(3-O-Sulphoβ1,3Gal)GalNAcα-O-Bn along with 50 mU ST3Gal-III. Products were fractionated using Biogel P2 column after 20 h at 37° C. Unused [9-^3H] sialyl fetuin (peak 1) appears prior to [9-^3H]Sialyl product from acceptor (peak 2) and CMP-[9-^3H]NeuAc (peak 3). Product identities were verified using LC-MS as indicated by molecular weights noted in the panels.
For these studies, [9-^3H] sialyl fetuin was prepared by the action of ST3Gal-II on fetuin in the presence of CMP-[9-^3H]NeuAc. Radioactivity incorporation into the O-glycan chain of the glycoprotein was confirmed by treating the labeled molecule with alkaline borohyrdride (1MNaBH4 in 0.1MNaOH at 45° C. for 24 hours) and detecting the released radioactivity. During these studies, sialyl fetuin was incubated with 5′-CMP, one of the above mentioned compounds, and sialyltransferase for 20 hours, and the product formed was eluted using a Biogel P2 column. […] Consequently no radioactivity was associated with the acceptor. […] The use of distinct compounds to differentially alter reverse and forward sialylation function further supports the concept that ST3Gal-II may have more than one catalytic function.

ST3Gal-II [2] = target: T1, ST3Gal-II; test: Serial transfer of sialic acid from donor via 5′-CMP to acceptors (scheme-II)
Experimental: FIG. 3. Serial transfer of sialic acid using scheme-II was followed at increasing concentrations of acceptor D-Fucβ1,3GalNAcα-O-Bn. The donor used was either: i) 0.15 mM [9-^3H]CMP-NeuAc; or, ii) 0.15 mM [9-^3H]NeuAcα2,3Galβ1,3(4-FGlcNAcβ1,6)GalNAcα-O-Bn [9-^3H [2]] in the presence of 2.0 mM 5′-CMP, or iii) [9-^3H]NeuAcα2,3Galβ1,3(6-O-SulfoGlcNAcβ1,6)GalNAcα-O—Al [[9-^3H] [4]] in the presence of 2.0 mM 5′-CMP. In runs where [9-^3H [2]] was donor since both and [2] bind C18 cartridges, control runs were performed in the absence of D-Fucβ1,3GalNAcα-O-Bn to estimate the amount of [9-^3H]CMP-NeuAc formed under the experimental conditions. 80-85% of the radioactivity was transferred to CMP-NeuAc in these runs. The amount of CMP-NeuAc remaining in runs with was then subtracted from CMP-NeuAc radioactivity in the control run to determine the amount of sialylated. To complement this run, studies were also performed with [[9-^3H] […] In these runs, the amount of sialylated was determined by measuring radioactivity retained in the C18-cartridge. a. Equilibrium constant was 5.55 when CMP-[9-^3H]NeuAc was donor. b. ˜10-fold lower acceptor concentration was required for similar extents of reaction when CMP-[9-^3H]NeuAc was donor, compared to core-2 based donors and [4].
We tested the possibility that CMP-NeuAc formed above may be available for transfer to other acceptors using ST3Gal-II (scheme-II, FIG. 3). For this, three radiolabeled donors were prepared using methods described above: two were based on the mucin Core-2 structure ([[9-^3H] [1]] and [9-^3H]NeuAcα2,3Galβ1,3(6-O-SulfoGlcNAcβ1,6)GalNAcα-O—Al [[9-^3H] [4]]) while the third was based on the Globo glycolipid ([9-^3H] [3]). The transfer of [9-^3H]NeuAc from these sialylated donors to various T-hapten (Galβ1,3GalNAcα) and mucin core2-based glycoside acceptors in the presence of 5′-CMP and ST3Gal-II was assessed (Table III). All three […] of ST3Gal-II ([1], [3] and [4]) allowed formation of CMP-[9-^3H]NeuAc, and a diverse array of products.
The transfer of [9-^3H]NeuAc from [[9-^3H][1]] to D-Fucβ1,3GalNAcα-O-Bn in the presence of 5′-CMP and ST3Gal-II increased linearly in the first two hours and it reached saturation at 4 hours (FIG. 12), and thus the data in Table III (4 hours time point) represent equilibrium conditions. […] Further, diverse sialylated products can be formed using the same synthetic sialylated donor.
In order to compare the efficiency of individual reactions of scheme II, independent runs were performed where either 0.15 mM [9-^3H]CMP-NeuAc, 0.15 mM [9-^3H] [2] or 0.15 mM [9-^3H] [4] was the donor, and [5] was the acceptor (FIG. 3). 2 mM 5′-CMP was added in runs with core-2 donors and [4], and thus reverse sialylation of these molecules was feasible. Keq for transfer of sialic acid from CMP-NeuAc to [5] was 5.55 (FIG. 3a). […] (˜6 mM) or [9-^3H[4]] (˜6 mM). Thus, while the two-step mechanism results in lower conversion than CMP-NeuAc alone, the transfer of NeuAc still takes place at an appreciable rate.

ST3Gal-II [3] = target: T1, ST3Gal-II; test: Reverse sialylation equilibrium constant (Keq) and 5′-CMP dose dependence; details: for Keq (dimensionless units), reverse sialylation equilibrium constant: acceptor 5′-CMP
Experimental: FIG. 2. Equilibrium constant. a. Reversible sialyltransferase activity at increasing concentration of 5′-CMP. 0.15 mM of donor [9-^3H]NeuAcα2,3Galβ1,3(4-FGlcNAcβ1,6)GalNAcα-O-Bn [9-^3H[2]] was incubated with varying concentrations of 5′-CMP and 0.15 mU ST3Gal-II under conditions described in FIG. 1 for 2 hours. The consumption of the [9-^3H]NeuAc benzyl glycoside donor was measured by subjecting the incubation mixture to Sep-Pak C18 fractionation, which binds the donor and not CMP-[9-^3H]NeuAc. The reaction proceeded to ½ the maximum extent at 80 μM 5′-CMP. b. Equilibrium constant Keq (=0.35) calculated for data in panel a. c. Varying concentrations of 5′-CMP was sialylated with ST3Gal-II (2.0 mU) using either 0.15 mM (panel c) or 1.5 mM (not shown) sialyl donor [9-^3H]NeuAcα2,3Galβ1,3GalNAcβ1,3Galα-O-Me [9-^3H[3]] for 4 hours. The product CMP-[9-^3H]NeuAc and the unused [9-^3H[3]] were separated and quantitated by Dowex-1-Formate method. d. Equilibrium constant, Keq=98.9. Diamonds denote data from 1.5 mM runs while data from 0.15 mM runs are depicted by squares.
a) Biogel P2 chromatography: A Biogel P2 column (Fine Mesh; 1.0×116.0 cm) was used with 0.1 M pyridine acetate (pH5.4) as the eluent at room temperature. […] Fractions of 1.0 ml were collected. The bound material was then eluted with 0.5M GlcNAc or 0.2M Gal in the same buffer. […] Calculation of equilibrium constant, Keq: Equilibrium constant was calculated for selected reversible bimolecular reactions that are denoted by:
[formula] Here, [9-^3H]D* denotes the radiolabeled donor and D′ is the donor after removal of sialic acid. Similarly, A and [9-^3H]A* denote the acceptor before and after incorporation of NeuAc. In each run, unreacted [9-^3H]D* and product [9-^3H] A* are measured using radioactivity measurements. The equilibrium constant (Keq=kreverse/kforward, dimensionless units) are then determined using the following equation, where terms in square brackets denote concentrations:
[formula] [D0] and [A0] are initial donor and acceptor concentrations. A plot of [D*]/([D0]−[D*]) versus [A*]/([A0]−[A*]) yields Keq from slope data. Keq<1 implies that the forward reaction is favored and the reaction proceeds to the right side to form [9-^3H]A* efficiently. Liquid Chromatography Coupled with Tandem Mass Spectrometry (LC/MS/MS)
Similar results were observed upon increasing concentrations of 5′-CMP when [9-^3H]NeuAcα2,3Galβ1,3(4-FGlcNAcβ1,6) GalNAcα-O-Bn [9-^3H[2]] was donor (FIG. 2a, b). The concentration of 5′-CMP that mediated half-maximal transfer of [9-^3H]NeuAc was 80 μM. The bimolecular equilibrium constant (Keq) for this reaction was 0.35 (dimensionless units, Table I). Indeed, the Keq varied depending on the donor and it was 98.9 when the donor was based on the globo glycolipid, [9-^3H]NeuAcα2,3Galβ1,3GalNAcβ1,3 Gala-O-Me [[9-^3H] [3]] (FIG. 2c, d). Upon comparing and [3], it is apparent that reverse sialylation proceeds more effectively in the case of [2]. To further confirm the above estimates of Keq for core-2 based structures, we also calculated this parameter for our previously published data where [9-^3H]CMP-NeuAc was donor and mucin core-2 tetrasaccharide Galβ1,4GlcNAcβ1,6(Galβ1,3)GalNAcα-O-Bn was acceptor. In this case, Keq measured with respect to the rate of mucin core-2 sialylation was 5.55 (data not shown), which translates to a reverse sialylation Keq of 0.18.

Compound: CC(=O)N[C@H]1[C@H](OC[C@H]2O[C@H](OCc3ccccc3)[C@H](NC(C)=O)[C@@H](O[C@@H]3O[C@H](CO)[C@H](O)[C@H](O)[C@H]3O)[C@H]2O)O[C@H](CO)[C@@H](O[C@@H]2O[C@H](CO)[C@H](O)[C@H](OS(=O)(=O)O)[C@H]2O)[C@@H]1O [3-O-SulfoGalβ1,4GlcNAcβ1,6(Galβ1,3)GalNAcα-O-Bn]
- Effect on reverse sialylation (CMP-NeuAc formation and product formation) (ST3Gal-II [1]): inhibits formation of the intermediate CMP-NeuAc

Compound: CC(=O)N[C@H]1[C@H](OC[C@H]2O[C@H](OCc3ccccc3)[C@H](NC(C)=O)[C@@H](O[C@@H]3O[C@H](CO)[C@H](O)[C@H](OS(=O)(=O)O)[C@H]3O)[C@H]2O)O[C@H](CO)[C@@H](O[C@@H]2O[C@H](CO)[C@H](O)[C@H](O)[C@H]2O)[C@@H]1O [Galβ1,4GlcNAcβ1,6(3-O-SulfoGalβ1,3)GalNAcα-O-Bn]
- Effect on reverse sialylation (CMP-NeuAc formation and product formation) (ST3Gal-II [1]): permits both the formation of CMP-NeuAc from 5′-CMP

Compound: [9-^3H]NeuAcα2,3Galβ1,3(4-FGlcNAcβ1,6)GalNAcα-O-Bn [[2]]
- amount of acceptor [5] required for comparable transfer (ST3Gal-II [2]; 0.15 mM donor, 2 mM 5′-CMP with core-2 donors): ~6 mM
- radioactivity transferred to CMP-NeuAc (ST3Gal-II [2]; control runs without acceptor [5], 2.0 mM 5′-CMP): 80-85%
- Keq (dimensionless units), reverse sialylation equilibrium constant (ST3Gal-II [3]; sialylated donor): 0.35

Compound: NeuAcα2,3Galβ1,4GlcNAcβ1,6(Galβ1,3)GalNAcα-O-Bn
- Effect on reverse sialylation (CMP-NeuAc formation and product formation) (ST3Gal-II [1]): prevents product formation without inhibiting CMP-NeuAc formation

Compound: CC(=O)N[C@H]1[C@H](OC[C@H]2O[C@H](OCc3ccccc3)[C@H](NC(C)=O)[C@@H](O[C@@H]3O[C@H](CO)[C@H](O)[C@H](O)[C@H]3O)[C@H]2O)O[C@H](CO)[C@@H](O[C@@H]2O[C@H](CO)[C@H](O)[C@H](O)[C@H]2O)[C@@H]1O [[10], Galβ1,4GlcNAcβ1,6(Galβ1,3)GalNAcα-O-Bn]
- Incorporation of [9-3H]NeuAc from donor [1], percent of the CPM incorporated into [5] (ST3Gal-II [2]; acceptor 2.5 mM, 150 μM donor [1], 1 mM 5′-CMP, 4 hours): 20.5%
- Incorporation of [9-3H]NeuAc from donor [4], percent of the CPM incorporated into [5] (ST3Gal-II [2]; acceptor 2.5 mM, 150 μM donor [4], 1 mM 5′-CMP, 4 hours): 8.4%
- Keq measured with respect to the rate of mucin core-2 sialylation (ST3Gal-II [3]; [9-3H]CMP-NeuAc donor, mucin core-2 tetrasaccharide acceptor, calculated for previously published data): 5.55
- Keq (dimensionless units), reverse sialylation equilibrium constant (ST3Gal-II [3]; translated from Keq 5.55 of mucin core-2 sialylation, previously published data): 0.18
